Values of other authors, collected in US20060003004A1 (Collegium Pharmaceutical, Inc., priority 2002, published 2006).
Read-outs that look alike come from different tables or passages of the source. Marks after values point to notes of the source that are not given here.

Columns and labels:
[1] = 40-120 mg/day, 1032 patients
[2] = intravenous, 10 patients
[3] = tested on: beta adrenergic receptors
[4] = tested on: histaminergic receptors
[5] = tested on: alpha adrenergic receptors
[6] = tested on: muscarinic receptors
[7] = for Participants who failed the dose escalation: escalation to 200 mg daily
[8] = not given; remark: listed apart in the source
[9] = not given; remark: listed apart in the source
[10] = tested on: dopaminergic receptors
[11] = tested on: beta adrenoceptors in rat cortex; conditions: after chronic administration
[12] = molecular target: uptake of dopamine (Homo sapiens, UniProt Q01959)
[13] = n=1,033
[14] = Phase 2 and Phase 3 depression studies
[15] = 100 mg/day twice daily, N = 1871
[16] = 200 mg/day twice daily, N = 865

Sequence of uptake of dopamine (Q01959 whole entry): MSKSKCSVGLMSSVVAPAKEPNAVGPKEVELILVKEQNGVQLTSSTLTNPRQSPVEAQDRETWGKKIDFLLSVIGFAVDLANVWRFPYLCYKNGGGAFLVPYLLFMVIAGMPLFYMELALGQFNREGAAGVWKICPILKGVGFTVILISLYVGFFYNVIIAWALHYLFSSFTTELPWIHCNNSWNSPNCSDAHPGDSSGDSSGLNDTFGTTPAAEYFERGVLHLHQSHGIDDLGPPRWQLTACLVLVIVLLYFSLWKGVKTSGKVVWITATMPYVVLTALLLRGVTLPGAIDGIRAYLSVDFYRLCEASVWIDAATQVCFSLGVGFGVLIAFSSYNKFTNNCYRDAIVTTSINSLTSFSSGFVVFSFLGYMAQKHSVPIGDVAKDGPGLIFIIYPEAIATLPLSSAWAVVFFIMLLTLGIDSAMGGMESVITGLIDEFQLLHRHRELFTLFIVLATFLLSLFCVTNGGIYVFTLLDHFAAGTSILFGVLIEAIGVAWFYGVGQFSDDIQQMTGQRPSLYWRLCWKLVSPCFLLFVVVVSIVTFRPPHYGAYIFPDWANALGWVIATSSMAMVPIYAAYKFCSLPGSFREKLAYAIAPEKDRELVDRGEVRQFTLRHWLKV

With `CNCC[C@H](Oc1cccc2ccccc12)c1cccs1` [duloxetine] as the molecule, how does the “Rate of adverse events nausea, dry mouth, fatigue, dizziness, constipation, somnolence, decreased appetite, and sweating” value [1] read?
Its value is “more than 5%”.

With `CCN(CC)C(=O)C1(c2ccccc2)CC1CN` (stereo not shown) [milnacipran, Milnacipran] as the molecule, how does the “Patients reporting transient nausea” value [2] read?
The value was “five of them reported transient nausea”.

What about the “Affinity for beta adrenergic receptors” value [3] of the same molecule?
The value was “no affinity”.

What about the “Affinity for histaminergic receptors” value [4] of the same molecule?
The value was “no affinity”.

What about the “Affinity for alpha adrenergic receptors” value [5] of the same molecule?
The value was “no affinity”.

What about the “Affinity for muscarinic receptors” value [6] of the same molecule?
The value was “no affinity”.

And the “Global pain score, mean value” ([7]; 1-7 scale (1 very much improved, 4 unchanged, 7 very much worse), FMS patients who reached endpoint, placebo 4.3, p=0.0001)?
The value was 2.3.

What about the “Participants who failed the dose escalation” value ([7]; BID-IR group) of the same molecule?
Its value is 6%.

What about the “Participants who failed the dose escalation” value ([7]; QD-IR group) of the same molecule?
The value was 19%.

And the “Adverse events: headache” value (100 mg/day twice daily)?
The value was 9%.

What about the “Adverse events: abdominal pain” value (200 mg/day twice daily) of the same molecule?
Its value is 7%.

What about the “Adverse events: headache” value (200 mg/day twice daily) of the same molecule?
The value was 8%.

And the “Adverse events: nausea and vomiting” value (200 mg/day twice daily)?
The value was 7%.

What about the “Parent drug eliminated unchanged via the kidneys” value ([8]; humans) of the same molecule?
Its value is 90%.

What about the half-life ([8]; humans) of the same molecule?
Its half-life is “approximately 8 hours”.

And the “Time within which oral doses are absorbed and distributed in the body” value ([8]; oral doses)?
Its value is 1 to 2 h.

What about the “Metabolites as share of the concentration of the parent drug” value ([8]; ten metabolites formed in the liver) of the same molecule?
Its value is “about 10%”.

And the “Frequency of Adverse Experiences: Abdominal Pain” value ([9]; 50 mg/day twice daily, N = 426)?
The value was 6.1%.

What about the “Frequency of Adverse Experiences: Agitation” value (“Frequency … Agitation” below) ([9]; 50 mg/day twice daily, N = 426) of the same molecule?
The value was 1.6%.

What about the “Frequency of Adverse Experiences: Anxiety” value (“Frequency … Anxiety” for short) ([9]; 50 mg/day twice daily, N = 426) of the same molecule?
The value was 2.8%.

And the “Frequency of Adverse Experiences: Dry mouth” value (“Frequency … Dry mouth” below) ([9]; 50 mg/day twice daily, N = 426)?
Its value is 9.4%.

And the “Frequency of Adverse Experiences: Dyspepsia” value (“Frequency … Dyspepsia” for short) ([9]; 50 mg/day twice daily, N = 426)?
Its value is 3.5%.

And the “Frequency of Adverse Experiences: Dysuria” value (from here on “Frequency … Dysuria”) ([9]; 50 mg/day twice daily, N = 426)?
The value was 1.4%.

What about the “Frequency of Adverse Experiences: Fatigue” value (“Frequency … Fatigue” below) ([9]; 50 mg/day twice daily, N = 426) of the same molecule?
Its value is 2.8%.

What about the “Frequency of Adverse Experiences: Headache” value (shortened to “Frequency … Headache”) ([9]; 50 mg/day twice daily, N = 426) of the same molecule?
The value was 14.6%.

And the “Frequency of Adverse Experiences: Hot flushes” value (from here on “Frequency … Hot flushes”) ([9]; 50 mg/day twice daily, N = 426)?
Its value is 1.6%.

And the “Frequency of Adverse Experiences: Increased Sweating” value (“Frequency … Increased Sweating” below) ([9]; 50 mg/day twice daily, N = 426)?
The value was 14.0%.

And the “Frequency of Adverse Experiences: Insomnia” value (from here on “Frequency … Insomnia”) ([9]; 50 mg/day twice daily, N = 426)?
Its value is 9.2%.

And the “Frequency of Adverse Experiences: Nausea” value ([9]; 50 mg/day twice daily, N = 426)?
The value was 12.7%.

And the “Frequency of Adverse Experiences: Nervousness” value (“Frequency … Nervousness” for short) ([9]; 50 mg/day twice daily, N = 426)?
Its value is 4.2%.

What about the “Frequency of Adverse Experiences: Palpitations” value (“Frequency … Palpitations” below) ([9]; 50 mg/day twice daily, N = 426) of the same molecule?
The value was 2.3%.

And the “Frequency of Adverse Experiences: Somnolence” value (“Frequency … Somnolence” below) ([9]; 50 mg/day twice daily, N = 426)?
The value was 5.4%.

And the “Frequency of Adverse Experiences: Tremor” value ([9]; 50 mg/day twice daily, N = 426)?
The value was 0.9%.

What about the “Frequency of Adverse Experiences: Vertigo” value (from here on “Frequency … Vertigo”) ([9]; 50 mg/day twice daily, N = 426) of the same molecule?
The value was 1.6%.

And the “Frequency of Adverse Experiences: Vomiting” value (“Frequency … Vomiting” below) ([9]; 50 mg/day twice daily, N = 426)?
The value was 3.8%.

What about the “Frequency … Agitation” value [9, 15] of the same molecule?
Its value is 3.3%.

What about the “Frequency … Anxiety” value [9, 15] of the same molecule?
Its value is 4.1%.

And the “Frequency … Dry mouth” value [9, 15]?
Its value is 7.9%.

And the “Frequency … Dyspepsia” value [9, 15]?
The value was 2.1%.

And the “Frequency … Dysuria” value [9, 15]?
Its value is 2.1* %.

And the “Frequency … Fatigue” value [9, 15]?
The value was 2.5%.

And the “Frequency … Headache” value [9, 15]?
The value was 8.4%.

And the “Frequency … Hot flushes” value [9, 15]?
The value was 3.0%.

And the “Frequency … Increased Sweating” value [9, 15]?
The value was 4.3* %.

What about the “Frequency … Insomnia” value [9, 15] of the same molecule?
Its value is 6.1%.

What about the “Frequency of Adverse Experiences: Nausea” value [9, 15] of the same molecule?
Its value is 11.2%.

And the “Frequency … Nervousness” value [9, 15]?
Its value is 2.0%.

What about the “Frequency … Palpitations” value [9, 15] of the same molecule?
The value was 2.7%.

And the “Frequency … Somnolence” value [9, 15]?
The value was 2.3%.

And the “Frequency of Adverse Experiences: Tremor” value [9, 15]?
The value was 2.5%.

What about the “Frequency … Vertigo” value [9, 15] of the same molecule?
Its value is 5.0%.

What about the “Frequency … Vomiting” value [9, 15] of the same molecule?
The value was 3.9%.

And the “Frequency of Adverse Experiences: Abdominal Pain” value [9, 16]?
Its value is 7.6%.

And the “Frequency … Agitation” value [9, 16]?
Its value is 2.9%.

What about the “Frequency … Anxiety” value [9, 16] of the same molecule?
Its value is 5.1%.

And the “Frequency … Dry mouth” value [9, 16]?
The value was 9.0%.

What about the “Frequency … Dyspepsia” value [9, 16] of the same molecule?
The value was 2.2%.

What about the “Frequency … Dysuria” value [9, 16] of the same molecule?
Its value is 3.7* %.

And the “Frequency … Fatigue” value [9, 16]?
Its value is 4.4%.

And the “Frequency … Headache” value [9, 16]?
Its value is 13.5%.

What about the “Frequency … Hot flushes” value [9, 16] of the same molecule?
The value was 3.6%.

What about the “Frequency … Increased Sweating” value [9, 16] of the same molecule?
Its value is 11.6* %.

And the “Frequency … Insomnia” value [9, 16]?
The value was 11.3%.

And the “Frequency of Adverse Experiences: Nausea” value [9, 16]?
The value was 19.4* %.

And the “Frequency … Nervousness” value [9, 16]?
Its value is 2.8%.

And the “Frequency … Palpitations” value [9, 16]?
The value was 4.6%.

And the “Frequency … Somnolence” value [9, 16]?
The value was 3.5%.

And the “Frequency of Adverse Experiences: Tremor” value [9, 16]?
Its value is 6.7* %.

What about the “Frequency … Vertigo” value [9, 16] of the same molecule?
The value was 4.5%.

And the “Frequency … Vomiting” value [9, 16]?
The value was 7.9* %.

What about the “Affinity for dopaminergic receptors” value [10] of the same molecule?
Its value is “no affinity”.

What about the “Effect on number of beta adrenoceptors in rat cortex” value [11] of the same molecule?
Its value is “does not affect”.

And the “Effect on uptake of dopamine” value [12]?
Its value is “does not affect”.

For `COc1ccc(C(CN(C)C)C2(O)CCCCC2)cc1` (stereo not shown) [venlafaxine], which “Adverse experience incidence: anorexia” value [13] is on record?
Its value is 11%.

What about the “Adverse experience incidence: anxiety” value [13] of the same molecule?
The value was 6%.

What about the “Adverse experience incidence: constipation” value [13] of the same molecule?
Its value is 15%.

What about the “Adverse experience incidence: dizziness” value [13] of the same molecule?
The value was 19%.

What about the “Adverse experience incidence: dry mouth” value [13] of the same molecule?
The value was 22%.

What about the “Adverse experience incidence: insomnia” value [13] of the same molecule?
Its value is 18%.

And the “Adverse experience incidence: nausea” value [13]?
The value was 37%.

What about the “Adverse experience incidence: nervousness” value [13] of the same molecule?
The value was 13%.

And the “Adverse experience incidence: somnolence” value [13]?
Its value is 23%.

What about the “Adverse experience incidence: tremor” value [13] of the same molecule?
Its value is 5%.

And the “Adverse experience incidence: vomiting” value [13]?
Its value is 6%.

What about the “Patients who discontinued treatment that did so due to nausea” value [14] of the same molecule?
The value was about 32%.
